Patent US20250368668A1, “CRYSTALLINE FORMS AND SALT FORMS OF A CARDIAC P2X RECEPTOR AGONIST, PHARMACEUTICAL COMPOSITIONS, AND THEIR USE IN TREATING MEDICAL DISORDERS” (Cornovus Pharmaceuticals, Inc., priority 2024, published 2025)
One block for each compound: values may come before it.

How the values were obtained:
Type in all cases: physicochemical
[1] = Solubility in water of sodium salts of Compound I; details: read-out: Aqueous Solubility of Sodium Salt Form of Compound I
Method: Sodium salts of Compound I described herein above were tested for solubility in water.

[2] = Solid-state stability of crystalline form on storage (form checked by X-ray powder diffraction); details: for crystalline form after extended storage: X-ray powder diffraction
Method: A sample of Form A crystalline hydrate of Compound I was subjected to stability analysis for 1 week at a temperature of 25° C. at 60% relative humidity.
Stability of Form B crystalline hydrate of compound I to extended storage was evaluated by storing samples of Form B crystalline hydrate of compound I for twelve months at either 5° C. or 25° C., and then subjecting samples of the stored material to X-ray powder diffraction analytical analysis.

[3] = Hygroscopicity by dynamic vapor sorption
Method: Form A crystalline hydrate of compound I was analyzed by X-ray powder diffraction, thermogravimetric analysis, dynamic vapor sorption (to analyze hygroscopicity), and Karl Fischer titration.
The title compound was analyzed for hygroscopicity by dynamic vapor sorption.

solubility [1]: 3000 µg/mL
Structure (SMILES): Nc1nc(Cl)nc2c1ncn2[C@H]1[C@H](O)[C@H](O)[C@]2(COP(=O)(O)O)C[C@H]12 [Compound I, ((1R,2R,3S,4R,5S)-4-(6-amino-2-chloro-9H-purin-9-yl)-2,3-dihydroxybicyclo[3.1.0]hexan-1-yl)methyl dihydrogen phosphate]

increase in weight during the absorption step ([3]; absorption step, FIG. 3, in %): 5.2100
weight loss during the desorption step ([3]; desorption step, FIG. 3): 5.16%
Structure (SMILES): Nc1nc(Cl)nc2c1ncn2[C@H]1[C@H](O)[C@H](O)[C@]2(COP(=O)(O)O)C[C@H]12 [Form A crystalline hydrate of Compound I]
crystalline form at the end of the stability study ([2]; 1 week, 25° C., 60% relative humidity): converted to Form B crystalline hydrate of Compound I

Structure (SMILES): Nc1nc(Cl)nc2c1ncn2[C@H]1[C@H](O)[C@H](O)[C@]2(COP(=O)(O)O)C[C@H]12 [Form B crystalline hydrate of compound I]
relative stability of crystalline forms ([2]; comparison with Form A hydrate and crystalline sodium salt forms): more stable than Form A of crystalline hydrate of compound I and more stable than the crystalline sodium salt forms of compound I
crystalline form after extended storage ([2]; twelve months at 5° C.): remain as Form B crystalline hydrate of compound I
crystalline form after extended storage ([2]; twelve months at 25° C.): remain as Form B crystalline hydrate of compound I
